Experimental findings from patent EP2862852B1, “Urea derivatives for the protection of stem cells” (Symrise AG, priority 2013, dated 2015) are described below.

One may read the IC50 as the concentration needed to halve the response being measured. Usually inhibition stands for the share of the control response that was lost under treatment.

Assay [1] deals with T1, 20S proteasome (Homo sapiens, UniProt P28074).
T1 construct: NHDF (normal human dermal fibroblasts) cells are disseminated in a 96-well microtiter plate; endogenous in cells; host or cells: NHDF (normal human dermal fibroblasts)
Nature of the assay: 20S Proteasome Assay (in vitro), chymotrypsin-like protease activity in NHDF cells. Conditions: 72 h. Format: cell-based.

The test system of assay [2] is B16V mouse melanoma cells. The assay can be described thus: Depigmentation effect on melanoma cell cultures. Format: cell-based. Conditions: 0.6 mM tyrosine and 10 nM α-MSH, 96 h, read-out: IC50, inhibition of pigmentation. The method, then: B16V mouse melanoma cells are disseminated in a 96-well micro-titre plate in a concentration of 7.5 x 10^3 cells/well. After cultivation for 24 h at 37°C and 5% CO2 in RPMI medium, enriched with 10% foetal calf serum, various concentrations of the test substances and 0.6 mM tyrosine and 10 nM α-MSH (α-melanocyte stimulating hormone) are added and incubated for a further 96 h. The maximum concentration of the test substances used corresponds to 0.1 times the value of the IC20 value of the cytotoxicity assay. Only tyrosine and α-MSH are added to the controls. After incubation, sodium hydroxide solution (final concentrations: 1 M) is added to the culture medium and the absorption (A) is measured after 3 h at 400 nm.
From the inhibition of pigmentation (%) in a series of dilutions of test compounds, the IC50 for each test compound is calculated. This is the concentration of a test compound at which pigmentation is inhibited by 50%.

Assay [3] relates to SIRT1. The assay can be described thus: SIRT1 assay (in vitro), SIRT1 expression by immunofluorescence in NHDF cells. Format: cell-based, human. Conditions: 10 µM, 48 h, mean values of at least 2 independent experiments. The method, then: NHDF cells (normal human dermal fibroblasts) were seeded in 96-well plates. After 24 h cultivation at 37 °C and 5% CO2 in DMEM (Dulbecco's Modified Eagle Medium), cells were treated with test substances for another 48 h. After washing the cells with PBS (phosphate buffered saline), the cells were fixed with paraformaldehyde and permeabilized. Then they were washed again and blocked with BSA (bovine serum albumen), followed by incubation with […]. After extensive washing, the fluorescence is measured in a microplate reader and fluorescence images were recorded on a fluorescence microscope with an attached […].
The stimulation of SIRT1 expression was calculated by: Stimulation of SIRT1expression[%] = ((RFU test substance−RFU background)/(RFU control−RFU background) × 100)−100 [formula] • RFU test substance = relative fluorescent units of the wells with test substance, stained completely • RFU control = relative fluorescent units of the wells without test substance, stained completely • RFU background = relative fluorescent units of the wells without test substance, stained only with secondary antibody.

Assay [4] has as its system HHFSC (Human Hair Follicle Stem Cells). The assay can be described thus: Stem cell protection (in vitro): inhibition of UVB-induced apoptosis, caspase 3/7 chemiluminescence. The assay is classed as cell-based. Conditions: light or radiation study, 25 mJ/cm^2 UVB, relative to control, read-out: Inhibition of UV induced apoptosis. The procedure:
HHFSC (Human Hair Follicle Stem Cells) isolated from hair follicle bulge (Celprogen) were cultivated in culture ware pre-coated with Human Hair Follicle Stem Cell Extra-cellular Matrix (Celprogen). The cells were incubated 2 h prior to and 16 h after UVB irradiation with test compounds. Cells were irradiated with 25 mJ/cm^2 UVB in the presence of buffer solution. Apoptosis induction was evaluated by caspase 3/7 protein expression (Caspase-Glo 3/7, Promega) and quantified by chemiluminescence measurement.

Assay [5] relates to Heme oxygenase-1. The assay can be described thus: Heme oxygenase-1 expression (in vitro), Western blot in NHDF cells. Conditions: 24 h. Format: cell-based, human. The procedure: NHDF (normal human dermal fibroblasts) cells were disseminated in a 6-well plate. After cultivation in fully enriched medium (DMEM, 10% FCS) for 48 h, the serum content was reduced to 0.1% to synchronize the cell cycle. Various concentrations of the test substances, the negative control (untreated cells) and tert.- butylhydrochinon as positive control, are added and incubated for a further 24 h. After cell lysis, the protein amount was determined using the Biorad BCA assay. All samples were adjusted to the same protein level before application on a fast Criterion Gel (Biorad) to perform electrophoresis for 20 minutes at 300 V. Thereafter the proteins were transferred to a PVDF membrane on a semi-dry blotter (30 minutes, 25 V). The blotted membrane is blocked for 4 hours in a 5% milk powder solution in TBST at 4°C. After washing, the membrane is incubated with the first antibody solution HO-1 from abcam (1:500 in 1% milk powder in TBST) over night. After this, washing is repeated and the membrane has to be incubated for 1 h in the second antibody solution (goat anti mouse coupled to HRP; 1:800 in 1% milk powder). […] The resulting band pattern is detected with a chemiluminescence sensitive camera system (Vilber Loumat). The quantification was done by densitometry. The up-regulation is calculated relative to control.
(In general: In western blotting, separated proteins are transferred to a membrane and probed.)

Assay [6] has as its system Hyaluronic acid. Nature of the assay: Hyaluronic Acid Assay (in vitro), competitive ELISA in NHDF cells. The assay is classed as cell-based, human. Conditions: 72 h. The method, then:
NHDF (normal human dermal fibroblasts) cells were disseminated in a 96-well microtiter plate in a concentration of 2 x 10^4 cells/well (DMEM, 10% FCS). After cultivation in fully enriched medium (DMEM, 10% FCS) for 48 h at 37°C and 5% CO2, the serum content was reduced to 0.1% to synchronize the cell cycle. Various concentrations of the test substances and TGF-beta1 as internal standard are added and incubated for a further 72 h. The maximum concentration of the test substances used corresponds to 0.2 times the value of the IC20 value of the cytotoxicity assay. Hyaluronic acid is quantified by a competitive ELISA (TECOmedical TE1017).
The percent bound for each standard and unknown substance is calculated using the following equation: HA_[ng/ml] = (Astandardortestsubstance −Ablank)/(Azerostandard −Ablank) [formula] The abbreviations have the following meanings: • A(standard or test substance): Absorption of the wells with standard or test substance • A(zero standard): Absorption of the wells without HA standard • A(blank): Absorption of the wells without antibody, without peroxidase conjugate A standard curve is generated by plotting the percent B/ B0 as a function of the log HA concentration. The HA amount in the unknown samples is calculated by interpolating from the percent B / B0 values to […]. InductionofHA[%] = ((HAtestsubstance −HAwithoutcells)/(HAcontrol −HAwithoutcells) × 100) [formula] The abbreviations have the following meanings: • HA test substance: Amount of HA of the wells with test substance and with cells • HA control: Amount of HA of the wells without test substance, but with cells • HA without cells Amount of HA of the wells without cells

Like-named read-outs stand apart in the source and are kept apart here.

Consider “1,3-bis(2-methylcyclohexyl)urea [Compound 7]”, for which the “20S proteasome stimulation relative to control” value in assay [1] (600 µM) came out at 85%.

As to `C[C@@H]1CCCC[C@H]1NC(=O)NCC1CCCCC1` (relative stereo) [Compound 4, 1-(cyclohexylmethyl)-3-(trans-2-methylcyclohexyl) urea], the IC50 in assay [2] (Mus musculus) is 14.6 µM.

Turning to `O=C(NC1CCCCC1)NC1CCCCC1` [Compound 1, 1,3-dicyclohexylurea], the “20S proteasome stimulation relative to control” value in assay [1] (600 µM) is given as 83%. In assay [3], this compound returned an SIRT1 protein induction of 34%.

`CCC(C)NC(=O)NC1CCCCC1` (stereo not drawn) [Compound 2, 1-cyclohexyl-3-sec-butyl-urea]: the IC50 in assay [2] (Mus musculus) was found to be 290 µM. In addition, the “20S proteasome stimulation relative to control” value in assay [1] (600 µM) came to 105%. For the same compound, in assay [3], the SIRT1 protein induction was 57%.

On to `CCCCCCNC(=O)NC1CCCCC1` [Compound 3, 1-cyclohexyl-3-hexyl-urea], for which the IC50 in assay [2] (Mus musculus) came out at 18 µM.

As to `CCCCC(CC)CNC(=O)NC1CCCCC1` (stereo not drawn) [Compound 5, 1-cyclohexyl-3-(2-ethylhexyl)urea], the inhibition at 20 µM in assay [4] (0.02 mM) turned out to be 20.4%. For the same compound, the inhibition at 200 µM in assay [4] (0.2 mM) is 95.3%. Besides, the IC50 in assay [2] (Mus musculus) was found to be 12.6 µM. In assay [1] (780 µM), the “20S proteasome stimulation relative to control” value stood at 37%. In addition, the SIRT1 protein induction in assay [3] worked out at 19%. Moreover, in assay [5] (250 µM), the “HO-1 up-regulation relative to control” value is 10.2-fold. For the same compound, the “Hyaluronic acid stimulation relative to control” value is on record as 67% in assay [6] (0.1 µM), 51% in assay [6] (0.5 µM) and 39% in assay [6] (5 µM).

`CC(C)CN(C)C(=O)NC1CCCCC1` [Compound 6, 3-cyclohexyl-(1-iso-butyl-1-methyl)-urea]: the “20S proteasome stimulation relative to control” value in assay [1] (23.5 µM) is 39%.

Regarding `O=c1cc(CO)occ1O` [Kojic acid, 5-hydroxy-2-hydroxymethyl-4-pyranone, reference compound], the concentration for half-maximal inhibition (IC50) in assay [2] (Mus musculus) is 452 µM.

As to `OC[C@H]1O[C@@H](Oc2ccc(O)cc2)[C@H](O)[C@@H](O)[C@@H]1O` [beta-Arbutin, reference compound], in assay [2], the IC50 is 67 µM.

In the case of `CC(C)(C)c1cc(O)ccc1O` [tert.-butylhydrochinon, tert.- butylhydrochinon, reference compound], the “HO-1 up-regulation relative to control” value in assay [5] (25 µM) is on record as 24.2-fold.
